Experimental data: US20260007681A1, “INDOLE DERIVATIVES AS ESTROGEN RECEPTOR DEGRADERS” (REGENTS OF THE UNIVERSITY OF MICHIGAN, priority 2022, published 2026)
Where two headings read alike, the source gives them in different places.

How the values were obtained:
[1] = biological target: ER (Homo sapiens (Human), UniProt P03372); test: In-cell western blot analysis of relative ER percentage (Compounds B1-B278); type: cell-based; conditions: ER degradation, 16 hours, read-out: ICW DC50
Method: In-cell western blot analysis. Cells are seeded in multi-well plates (e.g., at 40,000 or 10,000 cells/well). Diluted compounds at certain concentration are added (final 0.5% DMSO) and cells are incubated for […] (e.g., 16 hours). Formaldehyde (e.g., PBS:FA=9:1) is added and followed by washing with PBS. The cells are blocked with Licor blocking buffer (Li-Cor). The relative ER percentage in treated cells are obtained by comparing the values of treated wells to those in untreated and DMSO-treated wells as 100%.
In-cell western blot analysis. a. seed cells in black-sided/clear bottom 96- or 384-well plates at 40,000 or 10,000 cells/well, overnight; b. add diluted compounds (final 0.5% DMSO), 16 hours. 16 h later, remove medium, add 100 μL or 25 μL of 3.7-4.0% formaldehyde (PBS:FA=9:1), RT 20 min, no shaking; c. wash with PBS, and permeabilized with 100 μL or 25 μL/well of 1×PBS+0.1% Triton X-100 10 minutes; d. block with 100 μL or 25 μL Licor blocking buffer (Li-Cor), RT 1 h, moderate shaking; d. Add 100 μL or 25 μL of anti-ER (cs-8644, 1:500-1,000)+GAPDH(Millipore MAB374, 1:1000) in Block+0.05% Tween 20. RT 2 h, gentle shaking. Negative control: cells plus secondary antibodies (no primary antibodies); e. wash×4 with PBS +0.05-0.1% Tween 20, gentel shaking; f. anti-rabbit-680 and anti-mouse-800 (both 1:1000 in LiCor block +0.05% Tween20, RT 1 h, gentle shaking, no light. LI-COR: 0.2% to reduce background; g. wash×4 with PBS+0.05% Tween 20, gental shaking; h. add 100 μL or 25 μL of PBS to each well and read on CLX plate reader. The relative ER percentage in treated cells were obtained by comparing the values of treated wells to those in untreated and DMSO-treated wells as 100%.

[2] = Cell growth assay (WST-8) (Compounds B1-B278); type: cell-based; conditions: T47D cell line, WST-8, 4 days, read-out: Cell Growth Inhibition in T47D cell line IC50
Method: Cell Growth Assay. The cells are seeded at certain concentration (e.g., at 1500/well) in multi-well plates overnight. Cells are subsequently treated with the compounds. A certain period of time (e.g., 4 days) after the compound treatment, 10% WST-8 reagent is added to the culture medium and incubate under certain condiction (e.g., in a CO2 incubator at 37° C. for 2.5 hours). The absorbance is measured on each sample using a microplate reader at certain wavelength (e.g., 450 nm). The relative absorbance is calculated against the vehicle control from three individually repeats.
Cell Growth Assay. The cells were seeded at 1500/well in 96 well plates overnight. One day after the seeding, they were treated with indicated doses of compounds respectively. 4 days after the compound treatment, 10% WST-8 reagent was added to the culture medium and incubate in a CO2 incubator at 37° C. for 2.5 hours. Before reading, the plate was mixed gently on an orbital shaker for one minute to ensure homogeneous distribution of color. The absorbance was measured of each sample using a microplate reader at a wavelength of 450 nm. The relative absorbance was calculated against the vehicle control from three individually repeats.

Sequence of ER (P03372 whole entry): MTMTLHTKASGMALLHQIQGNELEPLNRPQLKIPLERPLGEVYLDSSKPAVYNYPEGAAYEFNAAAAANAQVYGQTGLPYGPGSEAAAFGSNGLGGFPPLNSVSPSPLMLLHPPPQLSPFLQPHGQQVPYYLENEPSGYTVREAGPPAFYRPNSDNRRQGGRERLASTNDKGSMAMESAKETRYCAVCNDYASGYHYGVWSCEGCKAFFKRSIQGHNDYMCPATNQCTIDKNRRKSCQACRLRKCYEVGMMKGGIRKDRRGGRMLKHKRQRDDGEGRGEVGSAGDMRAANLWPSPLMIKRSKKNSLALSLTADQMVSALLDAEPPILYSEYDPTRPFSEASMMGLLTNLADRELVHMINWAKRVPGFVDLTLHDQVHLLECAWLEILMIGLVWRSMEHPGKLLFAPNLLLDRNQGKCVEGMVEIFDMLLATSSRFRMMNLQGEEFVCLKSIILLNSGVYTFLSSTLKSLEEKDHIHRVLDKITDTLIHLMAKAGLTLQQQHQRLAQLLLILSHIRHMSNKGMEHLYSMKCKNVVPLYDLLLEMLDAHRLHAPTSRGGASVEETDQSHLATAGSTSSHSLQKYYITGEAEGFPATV

Compound | DC50 [1] | IC50 ([2]; 96 h) | IC50 [2]
C[C@@H]1Cc2c([nH]c3ccccc23)[C@@H](c2cnc(N3CCC(CN4CCN5c6ccc7c(c6OC[C@H]5C4)CN(C4CCC(=O)NC4=O)C7=O)CC3)nc2)N1CC(C)(C)F (mixture of isomers) [Compound B256, 3-((RS)-7-((1-(5-((1R,3R)-2-(2-fluoro-2-methylpropyl)-3-methyl-2,3,4,9-tetrahydro-1H-pyrido[3,4-b]indol-1-yl)pyrimidin-2-yl)piperidin-4-yl)methyl)-1-oxo-1,3,5,5a,6,7,8,9-octahydro-2H-pyrazino[1′,2′:4,5][1,4]oxazino[2,3-e]isoindol-2-yl)piperidine-2,6-dione] | > 100 nM | < 1 nM | –
C[C@@H]1Cc2c([nH]c3ccccc23)[C@@H](c2cnc(N3CC(CCN4CCN5c6cc7c(cc6OC[C@@H]5C4)C(=O)N(C4CCC(=O)NC4=O)C7)C3)nc2)N1CC(F)F (stereo partly drawn) [Compound B131, 3-((S)-3-(2-(1-(5-((1R,3R)-2-(2,2-difluoroethyl)-3-methyl-2,3,4,9-tetrahydro-1H-pyrido[3,4-b]indol-1-yl)pyrimidin-2-yl)azetidin-3-yl)ethyl)-8-oxo-1,2,3,4,4a,5,8,10-octahydro-9H-pyrazino[1,2′:4,5][1,4]oxazino[2,3-f]isoindol-9-yl)piperidine-2,6-dione] | – | > 10 nM | –
C[C@@H]1Cc2c([nH]c3ccccc23)[C@@H](c2cnc(N3CC4(CC(CN5CCN6c7cc8c(cc7OC[C@@H]6C5)C(=O)N(C5CCC(=O)NC5=O)C8)C4)C3)nc2)N1CC(F)F (stereo partly drawn) [Compound B133, 3-((S)-3-((2-(5-((1R,3R)-2-(2,2-difluoroethyl)-3-methyl-2,3,4,9-tetrahydro-1H-pyrido[3,4-b]indol-1-yl)pyrimidin-2-yl)-2-azaspiro[3.3]heptan-6-yl)methyl)-8-oxo-1,2,3,4,4a,5,8,10-octahydro-9H-pyrazino[1′,2′:4,5][1,4]oxazino[2,3-f]isoindol-9-yl)piperidine-2,6-dione] | – | 1 to 10 nM | –
COc1c2c(cc3c1CN(C1CCC(=O)NC1=O)C3=O)CN(CC(=O)N1CCC3(CC1)CCN(c1ncc([C@@H]4c5[nH]c6ccccc6c5C[C@@H](C)N4CC(F)F)cn1)CC3)C2 (stereo partly drawn) [Compound B134, 3-(6-(2-(9-(5-((1R,3R)-2-(2,2-difluoroethyl)-3-methyl-2,3,4,9-tetrahydro-1H-pyrido[3,4-b]indol-1-yl)pyrimidin-2-yl)-3,9-diazaspiro[5.5]undecan-3-yl)-2-oxoethyl)-4-methoxy-1-oxo-3,5,6,7-tetrahydropyrrolo[3,4-f]isoindol-2(1H)-yl)piperidine-2,6-dione] | – | < 1 nM | –
COc1cc(N2CCC3(CC2)CC(CN2CCN4c5ccc6c(c5OC[C@H]4C2)CN(C2CCC(=O)NC2=O)C6=O)CO3)ccc1[C@@H]1c2[nH]c3ccccc3c2C[C@@H](C)N1CC(C)(C)F (stereo partly drawn) [Compound B265, 3-((5aR)-7-((8-(4-((1R,3R)-2-(2-fluoro-2-methylpropyl)-3-methyl-2,3,4,9-tetrahydro-1H-pyrido[3,4-b]indol-1-yl)-3-methoxyphenyl)-1-oxa-8-azaspiro[4.5]decan-3-yl)methyl)-1-oxo-1,3,5,5a,6,7,8,9-octahydro-2H-pyrazino[1′,2′:4,5][1,4]oxazino[2,3-e]isoindol-2-yl)piperidine-2,6-dione] | 10 to 100 nM | – | –

More lines, main results first:

DC50 [1] | Compound | IC50 ([2]; 96 h) | IC50 [2]
10 to 100 nM | C[C@@H]1Cc2c([nH]c3ccccc23)[C@@H](c2c(F)cc(N3CC(C(=O)N4CCN5c6ccc7c(c6OC[C@H]5C4)CN(C4CCC(=O)NC4=O)C7=O)C3)cc2F)N1CC(F)F (mixture of isomers) [Compound B251, 3-((RS)-7-(1-(4-((1R,3R)-2-(2,2-difluoroethyl)-3-methyl-2,3,4,9-tetrahydro-1H-pyrido[3,4-b]indol-1-yl)-3,5-difluorophenyl)azetidine-3-carbonyl)-1-oxo-1,3,5,5a,6,7,8,9-octahydro-2H-pyrazino[1′,2′:4,5][1,4]oxazino[2,3-e]isoindol-2-yl)piperidine-2,6-dione] | < 1 nM | –
10 to 100 nM | C[C@@H]1Cc2c([nH]c3ccccc23)[C@@H](c2c(F)cc(N3CCC(C(=O)N4CCN5c6ccc7c(c6OC[C@H]5C4)CN(C4CCC(=O)NC4=O)C7=O)CC3)cc2F)N1CC(C)(F)F (mixture of isomers) [Compound B252, 3-((RS)-7-(1-(4-((1R,3R)-2-(2,2-difluoropropyl)-3-methyl-2,3,4,9-tetrahydro-1H-pyrido[3,4-b]indol-1-yl)-3,5-difluorophenyl)piperidine-4-carbonyl)-1-oxo-1,3,5,5a,6,7,8,9-octahydro-2H-pyrazino[1′,2′:4,5][1,4]oxazino[2,3-e]isoindol-2-yl)piperidine-2,6-dione] | – | –
10 to 100 nM | C[C@@H]1Cc2c([nH]c3ccccc23)[C@@H](c2c(F)cc(N3CCC(CN4CCN5c6ccc7c(c6OC[C@H]5C4)CN(C4CCC(=O)NC4=O)C7=O)CC3)cc2F)N1CC(F)F (mixture of isomers) [Compound B253, 3-((RS)-7-((1-(4-((1R,3R)-2-(2,2-difluoroethyl)-3-methyl-2,3,4,9-tetrahydro-1H-pyrido[3,4-b]indol-1-yl)-3,5-difluorophenyl)piperidin-4-yl)methyl)-1-oxo-1,3,5,5a,6,7,8,9-octahydro-2H-pyrazino[1′,2′:4,5][1,4]oxazino[2,3-e]isoindol-2-yl)piperidine-2,6-dione] | < 1 nM | –
10 to 100 nM | C[C@@H]1Cc2c([nH]c3ccccc23)[C@@H](c2cnc(N3CCC(CN4CCN5c6ccc7c(c6OC[C@H]5C4)CN(C4CCC(=O)NC4=O)C7=O)CC3)nc2)N1CC(F)F (mixture of isomers) [Compound B254, 3-((RS)-7-((1-(5-((1R,3R)-2-(2,2-difluoroethyl)-3-methyl-2,3,4,9-tetrahydro-1H-pyrido[3,4-b]indol-1-yl)pyrimidin-2-yl)piperidin-4-yl)methyl)-1-oxo-1,3,5,5a,6,7,8,9-octahydro-2H-pyrazino[1′,2′:4,5][1,4]oxazino[2,3-e]isoindol-2-yl)piperidine-2,6-dione] | < 1 nM | –
> 100 nM | C[C@@H]1Cc2c([nH]c3ccccc23)[C@@H](c2cnc(N3CCC(CN4CCN5c6ccc7c(c6OC[C@H]5C4)CN(C4CCC(=O)NC4=O)C7=O)CC3)nc2)N1CC(F)F (mixture of isomers) [Compound B255, 3-((RS)-7-((1-(5-((1R,3R)-2-(2,2-difluoroethyl)-3-methyl-2,3,4,9-tetrahydro-1H-pyrido[3,4-b]indol-1-yl)pyrimidin-2-yl)piperidin-4-yl)methyl)-1-oxo-1,3,5,5a,6,7,8,9-octahydro-2H-pyrazino[1′,2′:4,5][1,4]oxazino[2,3-e]isoindol-2-yl)piperidine-2,6-dione] | – | < 1 nM
10 to 100 nM | C[C@@H]1Cc2c([nH]c3ccccc23)[C@@H](c2c(F)cc(N3CCC(CN4CCN5c6ccc7c(c6OC[C@H]5C4)CN(C4CCC(=O)NC4=O)C7=O)CC3)cc2F)N1CC(C)(C)F (mixture of isomers) [Compound B257, 3-((RS)-7-((1-(3,5-difluoro-4-((1R,3R)-2-(2-fluoro-2-methylpropyl)-3-methyl-2,3,4,9-tetrahydro-1H-pyrido[3,4-b]indol-1-yl)phenyl)piperidin-4-yl)methyl)-1-oxo-1,3,5,5a,6,7,8,9-octahydro-2H-pyrazino[1′,2′:4,5][1,4]oxazino[2,3-e]isoindol-2-yl)piperidine-2,6-dione] | < 1 nM | –
> 100 nM | C[C@@H]1Cc2c([nH]c3ccccc23)[C@@H](c2c(F)cc(N3CCN(CC(=O)N4CCN5c6ccc7c(c6OC[C@H]5C4)CN(C4CCC(=O)NC4=O)C7=O)CC3)cc2F)N1CC(F)F (stereo partly drawn) [Compound B152, 3-((R)-7-(2-(4-(4-((1R,3R)-2-(2,2-difluoroethyl)-3-methyl-2,3,4,9-tetrahydro-1H-pyrido[3,4-b]indol-1-yl)-3,5-difluorophenyl)piperazin-1-yl)acetyl)-1-oxo-1,3,5,5a,6,7,8,9-octahydro-2H-pyrazino[1′,2′:4,5][1,4]oxazino[2,3-e]isoindol-2-yl)piperidine-2,6-dione] | – | –
